According to PubChem BioAssay AID2060341 (Molecular Pharmacology Branch, DTP, NCI, 2025):
Several values for one entry are separate records, joined by “and”; a condition that tells them apart may be missing. Equal entries are not always repeated.

Test system: 327498-153-R-J2-PDC multicell spheroid viability
Assay: Anticancer human tumor 327498-153-R-J2-PDC patient-derived uterine carcinosarcoma cell line growth inhibition [IpAb]
Conditions: for viability, T/C: stronger effect = lower value
Source text: Combinatorial screen of targeted agents with ipatasertib and abemaciclib in multi-cell type tumor spheroids
A high-throughput screen of multi-cell type tumor spheroids was designed to identify active combinations of targeted small molecules and ipatasertib or abemaciclib. Complex spheroids include a stromal component modeled by human endothelial cells (HUVEC) and fibroblasts modeled by human mesenchymal stem cells (MSCs). The concentration ranges selected for each drug and investigational agent were based upon clinically achievable concentrations if the clinical Cmax of the agent was known.
Compounds. The drugs and investigational agents: ipatasertib (NSC767898), abemaciclib(NSC768073), selumetinib (NSC741078), trametinib (758246), adavosertib (NSC754352), everolimus (NSC733504), sapanisertib (NSC764658), vemurafenib (NSC761431), venetoclax (NSC766270), copanlisib (NSC809693), apelisib (NSC765974), palbociblib (NSC758247), vemurafenib (NSC761431), dabrafenib (NSC764134), ravoxertinib (NSC781343), BMS-387032 (NSC767048), sotorasib (NSC818433), talazoparib (NSC767125) and afursertib (NSC778305), were obtained from the National Cancer Institute (NCI) Developmental Therapeutics Program Chemical Repository. The FDA-approved anticancer drug set is available from the NCI Developmental Therapeutics Program. […] The stock solutions were prepared in dimethyl sulfoxide (DMSO, Sigma-Aldrich, St. Louis, MO, cat. D2650) at 800-fold the tested concentration and stored at -70 degrees C prior to their use. All drugs and investigational agents were tested over a range starting from a high concentration at or near the clinical Cmax and decreasing in half-log increments. If the clinical Cmax for an agent had not been determined, the highest concentration tested was 10 microM.
NCI60 Cell Culture. NCI60 cell lines were obtained from the NCI Developmental Therapeutics Program Tumor Repository. For each lot of cells, the Repository performed Applied Biosystems AmpFLSTR Identifiler testing with PCR amplification to confirm consistency with the published Identifier STR profile for each cell line. Cells were kept in continuous culture for no more than 20 passages. The optimal seeding densities for each of the cell lines at each time point assessed were determined prior to performing the concentration response studies. Briefly, the NCI60 human tumor lines were grown as monolayers in RPMI 1640 medium supplemented with 10% FBS and 2 mmol/L L-glutamine.
An additional 9 lines were from the NCI60 cell line panel including MDA-MB-231 breast carcinoma, MDA-MB-468 breast carcinoma, MCF7 breast carcinoma, Hs578T breast carcinoma, MALME-3M melanoma, SK-MEL-2 melanoma, SK-OV-3 ovarian carcinoma, DU-145 prostate carcinoma, PC-3 prostate carcinoma, all cell lines along with major genetic alterations are listed on Table 2. Pooled donor human umbilical vein endothelial cells (HUVEC, Lonza, cat. CC-2519) and human mesenchymal stem cells (hMSC, Lonza, cat. PT-2501) were purchased from Lonza (Walkersville, MD).
PDMR cell lines were grown in complete medium (DC medium): Dulbecco's modified Eagle's medium (DMEM)/F12 supplemented with 5% fetal bovine serum (FBS), 2 mM L-glutamine, 100 U/mL penicillin and 100 µg/ml streptomycin, 0.4 µg/ml hydrocortisone, 10 ng/ml epidermal growth factor (EGF) recombinant human protein, 24 µg/mL adenine, and 0.1 mg/mL primocin. During culture from frozen stock vials, PDMR cells were cultured in the same medium containing 10 µM Y-27632 (see Table 3). The PDCs were cultured in complete DMEM/F12 media without 10 microM Y-27632 dihydrochloride for at least two passages prior to the screen. The pooled donor HUVEC and hMSC were cultured in endothelial cell growth medium 2 (PromoCell, Heidelberg, Germany, cat. C-22011) and mesenchymal stem cell growth medium 2 (PromoCell, cat. C-28009), respectively. For all experiments, HUVEC and hMSC were used at passages </=5.
[…]

[1] = curve of first compound, second compound 0.1 µM
[2] = curve of first compound, second compound 0.316 µM
[3] = curve of first compound, second compound 1 µM
[4] = curve of first compound, second compound 3.16 µM
[5] = curve of first compound, second compound 10 µM
[6] = second compound 0.1 µM, first compound 0.0316 µM
[7] = second compound 0.1 µM, first compound 0.1 µM
[8] = second compound 0.1 µM, first compound 0.316 µM
[9] = second compound 0.1 µM, first compound 1 µM
[10] = second compound 0.1 µM, first compound 3.16 µM
[11] = second compound 0.1 µM, first compound 10 µM
[12] = second compound 0.316 µM, first compound 0.0316 µM
[13] = second compound 0.316 µM, first compound 0.1 µM
[14] = second compound 0.316 µM, first compound 0.316 µM
[15] = second compound 0.316 µM, first compound 1 µM
[16] = second compound 0.316 µM, first compound 3.16 µM
[17] = second compound 0.316 µM, first compound 10 µM
[18] = second compound 1 µM, first compound 0.0316 µM
[19] = second compound 1 µM, first compound 0.1 µM
[20] = second compound 1 µM, first compound 0.316 µM
[21] = second compound 1 µM, first compound 1 µM
[22] = second compound 1 µM, first compound 3.16 µM
[23] = second compound 1 µM, first compound 10 µM
[24] = second compound 3.16 µM, first compound 0.0316 µM
[25] = second compound 3.16 µM, first compound 0.1 µM
[26] = second compound 3.16 µM, first compound 0.316 µM
[27] = second compound 3.16 µM, first compound 1 µM
[28] = second compound 3.16 µM, first compound 3.16 µM
[29] = second compound 3.16 µM, first compound 10 µM
[30] = second compound 10 µM, first compound 0.0316 µM
[31] = second compound 10 µM, first compound 0.1 µM
[32] = second compound 10 µM, first compound 0.316 µM
[33] = second compound 10 µM, first compound 1 µM
[34] = second compound 10 µM, first compound 3.16 µM
[35] = second compound 10 µM, first compound 10 µM
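Also: spheroids exposed to agents for 7 days.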
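For viability, T/C in this document: 100% = DMSO vehicle control viability.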

SMILES: C=CCn1c(=O)c2cnc(Nc3ccc(N4CCN(C)CC4)cc3)nc2n1-c1cccc(C(C)(C)O)n1 + CC(C)NCC(C(=O)N1CCN(c2ncnc3c2C(C)CC3O)CC1)c1ccc(Cl)cc1
- IC50 [1]: 259 nM
- IC50 [2]: 151 nM
- IC50 [3]: 101 nM
- IC50 [4]: < 31.6 nM
- IC50 [5]: < 31.6 nM
- viability, T/C [6]: 90.3%
- viability, T/C [7]: 83.2%
- viability, T/C [8]: 43.2%
- viability, T/C [9]: 3.61%
- viability, T/C [10]: 3.91%
- viability, T/C [11]: 6.69%
- viability, T/C [12]: 73.8%
- viability, T/C [13]: 65.2%
- viability, T/C [14]: 22.6%
- viability, T/C [15]: 3.04%
- viability, T/C [16]: 3.47%
- viability, T/C [17]: 6.17%
- viability, T/C [18]: 49.6%
- viability, T/C [19]: 50.5%
- viability, T/C [20]: 17.3%
- viability, T/C [21]: 3.25%
- viability, T/C [22]: 2.88%
- viability, T/C [23]: 5.72%
- viability, T/C [24]: 45.1%
- viability, T/C [25]: 35.2%
- viability, T/C [26]: 11.5%
- viability, T/C [27]: 3.53%
- viability, T/C [28]: 3.4%
- viability, T/C [29]: 4.64%
- viability, T/C [30]: 30.4%
- viability, T/C [31]: 27.4%
- viability, T/C [32]: 8.25%
- viability, T/C [33]: 3%
- viability, T/C [34]: 3.44%
- viability, T/C [35]: 4.49%

SMILES: C=CCn1c(=O)c2cnc(Nc3ccc(N4CCN(C)CC4)cc3)nc2n1-c1cccc(C(C)(C)O)n1 + CCN1CCN(Cc2ccc(Nc3ncc(F)c(-c4cc(F)c5nc(C)n(C(C)C)c5c4)n3)nc2)CC1
- IC50 (curve of first compound, second compound 0.01 µM): 318 nM
- IC50 (curve of first compound, second compound 0.0316 µM): 261 nM
- IC50 [1]: 222 nM
- IC50 [2]: 250 nM
- IC50 [3]: 313 nM
- viability, T/C (second compound 0.01 µM, first compound 0.0316 µM): 94.3%
- viability, T/C (second compound 0.01 µM, first compound 0.1 µM): 88.5%
- viability, T/C (second compound 0.01 µM, first compound 0.316 µM): 50.6%
- viability, T/C (second compound 0.01 µM, first compound 1 µM): 5.09%
- viability, T/C (second compound 0.01 µM, first compound 3.16 µM): 4.75%
- viability, T/C (second compound 0.01 µM, first compound 10 µM): 5.85%
- viability, T/C (second compound 0.0316 µM, first compound 0.0316 µM): 84.4%
- viability, T/C (second compound 0.0316 µM, first compound 0.1 µM): 76.9%
- viability, T/C (second compound 0.0316 µM, first compound 0.316 µM): 44.9%
- viability, T/C (second compound 0.0316 µM, first compound 1 µM): 6.81%
- viability, T/C (second compound 0.0316 µM, first compound 3.16 µM): 5.01%
- viability, T/C (second compound 0.0316 µM, first compound 10 µM): 6.96%
- viability, T/C [6]: 69.1%
- viability, T/C [7]: 68.5%
- viability, T/C [8]: 41.9%
- viability, T/C [9]: 11.1%
- viability, T/C [10]: 7.8%
- viability, T/C [11]: 9.75%
- viability, T/C [12]: 66.2%
- viability, T/C [13]: 61.1%
- viability, T/C [14]: 47.3%
- viability, T/C [15]: 24%
- viability, T/C [16]: 14.6%
- viability, T/C [17]: 14.8%
- viability, T/C [18]: 60.6%
- viability, T/C [19]: 58.6%
- viability, T/C [20]: 50.4%
- viability, T/C [21]: 31.8%
- viability, T/C [22]: 20.7%
- viability, T/C [23]: 14.9%

SMILES: CC(C)n1nc(-c2ccc3oc(N)nc3c2)c2c(N)ncnc21
- viability, T/C (compound 0.000316 µM): 103% and 88.9%
- viability, T/C (compound 0.001 µM): 96.1% and 101%
- viability, T/C (compound 0.00316 µM): 81.9% and 88%
- viability, T/C (compound 0.01 µM): 54.3% and 52.7%
- viability, T/C (compound 0.0316 µM): 31.7% and 27.2%
- viability, T/C (compound 0.1 µM): 19.6% and 18.2%
- IC50 (curve of compound): 12.7 nM and 11.5 nM

SMILES: CC1(C)CCC(CN2CCN(c3ccc(C(=O)NS(=O)(=O)c4ccc(NCC5CCOCC5)c([N+](=O)[O-])c4)c(Oc4cnc5[nH]ccc5c4)c3)CC2)=C(c2ccc(Cl)cc2)C1 + CC(C)NCC(C(=O)N1CCN(c2ncnc3c2C(C)CC3O)CC1)c1ccc(Cl)cc1
- IC50 [1]: 5370 nM
- IC50 [2]: 3980 nM
- IC50 [3]: 3500 nM
- IC50 [4]: < 31.6 nM
- IC50 [5]: < 31.6 nM
- viability, T/C [6]: 92.4%
- viability, T/C [7]: 96.7%
- viability, T/C [8]: 88.8%
- viability, T/C [9]: 91.6%
- viability, T/C [10]: 84.7%
- viability, T/C [11]: 9.23%
- viability, T/C [12]: 84.1%
- viability, T/C [13]: 76.2%
- viability, T/C [14]: 73%
- viability, T/C [15]: 71.5%
- viability, T/C [16]: 62.9%
- viability, T/C [17]: 5.02%
- viability, T/C [18]: 61.5%
- viability, T/C [19]: 57.1%
- viability, T/C [20]: 56%
- viability, T/C [21]: 51.7%
- viability, T/C [22]: 54.8%
- viability, T/C [23]: 2.82%
- viability, T/C [24]: 43.8%
- viability, T/C [25]: 43.9%
- viability, T/C [26]: 43.5%
- viability, T/C [27]: 42.7%
- viability, T/C [28]: 42.9%
- viability, T/C [29]: 1.99%
- viability, T/C [30]: 34.7%
- viability, T/C [31]: 30.8%
- viability, T/C [32]: 31.3%
- viability, T/C [33]: 31.1%
- viability, T/C [34]: 26.6%
- viability, T/C [35]: 0.91%
